Source: patent US8124653B2, “Methods and compositions for the treatment of attention deficit hyperactivity disorder and hyperphenylalanemia” (The Board of Regents of The University of Texas System, priority 2004, dated 2012)
Where “and” joins values, the source holds several entries; their conditions need not be identical. Equal entries are not always repeated.

Columns and labels:
normal mice = assay: Levels of metabolites in mouse brain following BH4 and 6-methyl BH4 treatment, normal mice; format: in vivo; conditions: Non PKU mice, single dose IM 100 mg/kg, after 1 hr; one line per animal
Experimental: (§1) To comparatively investigate the CNS effects of BH4 and methyl BH4, we used mice both with and without PKU. A single dose of either compound was given IM, 100 mg/kg to PKU afflicted and normal mice, with control groups receiving buffer only. After 1 hr, a time sufficient to observe changes in brain chemistry, the mice were sacrificed, and brains were sent out for analysis of 3-O-methyldopa (“3OMD”), 5-hydroxytryptamine ([…]) (serotonin), dihydroxybenzoic acid (“DHBA”), dopamine (“DA”), dihydroxyphenylacetic acid (“DOPAC”), hydroxyindoleacetic acid (“HIAA”), homovanilic acid (“HVA”), and methoxyhydroxyphenylglycol (“MPHG”) levels.

PKU afflicted mice = assay: Levels of metabolites in mouse brain following BH4 and 6-methyl BH4 treatment, PKU mice; format: in vivo; conditions: for 3OMD level in brain / 5HT level in brain / DA level in brain / DOPAC level in brain / HIAA level in brain / HVA level in brain / MPHG level in brain: PKU mice, single dose IM 100 mg/kg, after 1 hr, one line per animal
Experimental: as §1

[1] = tested on: release of neurotransmitter amines; conditions: U.S. Pat. No. 5,606,020 to Watanabe et al.; cited from earlier work
patients with PKU = assay: Oral BH4 loading in patients with PKU, blood Phe and tyrosine by tandem MS/MS (Example 2); format: in vivo, human
Experimental: This study included 15 males and 10 females with PKU. There were 13 subjects with “classical” PKU (based on blood Phe levels greater than 20 mg/dL) and 12 with “atypical” PKU (blood Phe 6.0-20 mg/dL). The mean age of the subjects was 16.6 years with a range from 6 months to 43 years. All subjects were on a restricted Phe diet, except four subjects with atypical PKU, who had discontinued diet treatment. […] Tetrahydrobiopterin (BH4) was obtained from Schircks Laboratories, Jena, Switzerland. The subjects were given BH4 10 mg/kg or 20 mg/kg by mouth after baseline blood Phe and tyrosine were drawn. Blood Phe and tyrosine were taken at 4, 8, and 24 hours and determined using tandem MS/MS (Neogen).

PKU patients = assay: Single oral BH4 dose in PKU patients, blood Phe and tyrosine response (Example 1); format: in vivo, human; conditions: single oral 10 mg/kg, responder = Phe reduction 25% or greater with tyrosine increase 25% or greater within 24 hours
Experimental: PKU patients were administered a single oral dose of 10 mg/kg BH4, and blood levels of both Phe and tyrosine were monitored at 0, 4, 8, 24 hours post-dose. In this regard, it should be noted that this is half the dose administered by previous investigators.

Structure (SMILES) | 3OMD level in brain (normal mice) | 5HT level in brain (normal mice) | DA level in brain (normal mice) | DOPAC level in brain (normal mice) | HIAA level in brain (normal mice) | HVA level in brain (normal mice) | MPHG level in brain (normal mice) | 3OMD level in brain (PKU afflicted mice) | 5HT level in brain (PKU afflicted mice) | DA level in brain (PKU afflicted mice) | DOPAC level in brain (PKU afflicted mice) | HIAA level in brain (PKU afflicted mice) | HVA level in brain (PKU afflicted mice) | MPHG level in brain (PKU afflicted mice) | other results
CC1CNc2nc(N)[nH]c(=O)c2N1 (centres unmarked) [6-Me BH4, 6-methyl-tetrahydropterin] | 0.57 nmol/g wet weight and 0.29 nmol/g wet weight and 0.36 nmol/g wet weight and 0.44 nmol/g wet weight and 114.5 nmol/l and 87.7 nmol/l and 58.2 nmol/l and 71.7 nmol/l | 1.07 nmol/g wet weight and 1.31 nmol/g wet weight and 1.21 nmol/g wet weight and 1.11 nmol/g wet weight and 214.3 nmol/l and 222.6 nmol/l and 261.1 nmol/l and 242.3 nmol/l | 10.86 nmol/g wet weight and 10.26 nmol/g wet weight and 11.50 nmol/g wet weight and 10.56 nmol/g wet weight and 2172.4 nmol/l and 2112.1 nmol/l and 2051.2 nmol/l and 2300.5 nmol/l | 0.61 nmol/g wet weight and 0.65 nmol/g wet weight and 0.66 nmol/g wet weight and 0.59 nmol/g wet weight and 121.6 nmol/l and 118.9 nmol/l and 129.6 nmol/l and 132.5 nmol/l | 3.09 nmol/g wet weight and 3.56 nmol/g wet weight and 3.65 nmol/g wet weight and 3.22 nmol/g wet weight and 617.3 nmol/l and 643.9 nmol/l and 712.0 nmol/l and 730.5 nmol/l | 1.26 nmol/g wet weight and 0.99 nmol/g wet weight and 1.20 nmol/g wet weight and 1.28 nmol/g wet weight and 252.9 nmol/l and 256.9 nmol/l and 197.1 nmol/l and 240.6 nmol/l | 0.31 nmol/g wet weight and 0.26 nmol/g wet weight and 0.30 nmol/g wet weight and 0.29 nmol/g wet weight and 62.9 nmol/l and 58.9 nmol/l and 51.2 nmol/l and 59.7 nmol/l | 0.39 nmol/g wet weight and 0.26 nmol/g wet weight and 0.17 nmol/g wet weight and 0.47 nmol/g wet weight and 77.7 nmol/l and 51.9 nmol/l and 34.9 nmol/l and 94.1 nmol/l | 0.20 nmol/g wet weight and 0.15 nmol/g wet weight and 0.28 nmol/g wet weight and 0.24 nmol/g wet weight and 40.0 nmol/l and 30.0 nmol/l and 56.7 nmol/l and 47.6 nmol/l | 10.16 nmol/g wet weight and 7.14 nmol/g wet weight and 6.46 nmol/g wet weight and 7.27 nmol/g wet weight and 2031.2 nmol/l and 1427.4 nmol/l and 1292.6 nmol/l and 1454.4 nmol/l | 0.51 nmol/g wet weight and 0.40 nmol/g wet weight and 0.52 nmol/g wet weight and 0.48 nmol/g wet weight and 101.7 nmol/l and 80.6 nmol/l and 104.5 nmol/l and 95.6 nmol/l | 1.70 nmol/g wet weight and 1.03 nmol/g wet weight and 1.64 nmol/g wet weight and 1.41 nmol/g wet weight and 340.4 nmol/l and 205.6 nmol/l and 328.1 nmol/l and 282.2 nmol/l | 1.18 nmol/g wet weight and 0.94 nmol/g wet weight and 0.92 nmol/g wet weight and 0.91 nmol/g wet weight and 236.9 nmol/l and 187.2 nmol/l and 184.5 nmol/l and 182.1 nmol/l | 0.36 nmol/g wet weight and 0.26 nmol/g wet weight and 0.32 nmol/g wet weight and 0.18 nmol/g wet weight and 71.2 nmol/l and 52.1 nmol/l and 63.2 nmol/l and 36.3 nmol/l | Overall effect on CNS chemistry, compared with BH4 (PKU afflicted mice; PKU and normal mice, IM 100 mg/kg, 1 hr, summary of Tables 5 and 6): greater effect on CNS chemistry; Ability to traverse the blood brain barrier, as compared to BH4 (PKU afflicted mice; inferred from brain metabolite levels, PKU and normal mice): better ability to traverse the blood brain barrier
C[C@H](O)[C@H](O)[C@H]1CNc2nc(N)[nH]c(=O)c2N1 [6R-BH4] |  |  |  |  |  |  |  |  |  |  |  |  |  |  | Release and liberation of neurotransmitter amines such as dopamine, norepinephrine and serotonin [1]: enhances the release and liberation of neurotransmitter amines
C[C@H](O)[C@H](O)[C@H]1CNc2nc(N)[nH]c(=O)c2N1 [BH4, Tetrahydrobiopterin] | 0.58 nmol/g wet weight and 0.27 nmol/g wet weight and 0.60 nmol/g wet weight and 0.41 nmol/g wet weight and 115.6 nmol/l and 53.3 nmol/l and 119.7 nmol/l and 81.1 nmol/l | 1.27 nmol/g wet weight and 1.21 nmol/g wet weight and 1.16 nmol/g wet weight and 1.53 nmol/g wet weight and 253.5 nmol/l and 242.3 nmol/l and 231.2 nmol/l and 305.2 nmol/l | 9.06 nmol/g wet weight and 9.56 nmol/g wet weight and 9.63 nmol/g wet weight and 9.93 nmol/g wet weight and 1811.4 nmol/l and 1912.5 nmol/l and 1926.7 nmol/l and 1985.9 nmol/l | 0.68 nmol/g wet weight and 0.62 nmol/g wet weight and 0.72 nmol/g wet weight and 0.79 nmol/g wet weight and 136.6 nmol/l and 124.4 nmol/l and 143.4 nmol/l and 158.6 nmol/l | 3.49 nmol/g wet weight and 3.23 nmol/g wet weight and 3.19 nmol/g wet weight and 3.58 nmol/g wet weight and 697.5 nmol/l and 646.1 nmol/l and 638.7 nmol/l and 716.9 nmol/l | 1.08 nmol/g wet weight and 1.09 nmol/g wet weight and 1.22 nmol/g wet weight and 1.18 nmol/g wet weight and 216.9 nmol/l and 217.7 nmol/l and 243.0 nmol/l and 236.6 nmol/l | 0.36 nmol/g wet weight and 0.30 nmol/g wet weight and 0.40 nmol/g wet weight and 0.33 nmol/g wet weight and 72.5 nmol/l and 60.6 nmol/l and 80.2 nmol/l and 66.7 nmol/l | 0.48 nmol/g wet weight and 0.16 nmol/g wet weight and 0.09 nmol/g wet weight and 0.55 nmol/g wet weight and 95.1 nmol/l and 32.9 nmol/l and 18.2 nmol/l and 110.4 nmol/l | 0.16 nmol/g wet weight and 0.23 nmol/g wet weight and 0.15 nmol/g wet weight and 0.24 nmol/g wet weight and 31.5 nmol/l and 45.7 nmol/l and 30.4 nmol/l and 48.3 nmol/l | 6.28 nmol/g wet weight and 9.48 nmol/g wet weight and 6.91 nmol/g wet weight and 8.08 nmol/g wet weight and 1256.0 nmol/l and 1896.3 nmol/l and 1382.2 nmol/l and 1616.2 nmol/l | 0.40 nmol/g wet weight and 0.53 nmol/g wet weight and 0.51 nmol/g wet weight and 0.37 nmol/g wet weight and 80.9 nmol/l and 105.7 nmol/l and 101.0 nmol/l and 73.1 nmol/l | 0.91 nmol/g wet weight and 1.68 nmol/g wet weight and 0.94 nmol/g wet weight and 1.45 nmol/g wet weight and 181.1 nmol/l and 336.9 nmol/l and 188.0 nmol/l and 290.6 nmol/l | 0.80 nmol/g wet weight and 1.04 nmol/g wet weight and 0.77 nmol/g wet weight and 0.94 nmol/g wet weight and 160.6 nmol/l and 207.0 nmol/l and 153.6 nmol/l and 188.7 nmol/l | 0.18 nmol/g wet weight and 0.21 nmol/g wet weight and 0.26 nmol/g wet weight and 0.16 nmol/g wet weight and 35.2 nmol/l and 42.9 nmol/l and 51.6 nmol/l and 31.6 nmol/l | Number of classical PKU subjects who responded to BH4 (patients with PKU; 13 subjects with classical PKU (blood Phe greater than 20 mg/dL)): 6; Drop in blood Phe level (patients with PKU; non-responding patients with R261Q allele challenged again with 20 mg/kg BH4): 10%; Mean decline in blood Phe (patients with PKU; responders, after BH4 loading): 53.7%; Mean blood Phe level after BH4 loading (patients with PKU; responders, prior to BH4 12.2 mg/dL): 6.6 mg/dL; Mean blood Phe level after BH4 loading (patients with PKU; responders, prior to BH4 732 mmol/L, unit of the source corrected): 396 µM; Number of Responders (PKU patients; Atypical PKU, blood Phe 6-20 mg/dl, 9 subjects): 9; Number of Responders (PKU patients; Classic PKU, blood Phe 20-50 mg/dl, 6 subjects): 0
